Starred links: 1 amine or outer side, 2 acyl side, 3 side chain; linkers in the order of their positions; H or OH if unused. Non-standard residues stand in square brackets, D forms with d. Residues, ends and D or L forms follow the SMILES beside them. Groups on a side chain read outwards from the residue. *: point of attachment. dPhe(4-Cl) = N[C@H](Cc1ccc(Cl)cc1)C(=O)O; d1Nal = N[C@H](Cc1cccc2ccccc12)C(=O)O; d2Nal = N[C@H](Cc1ccc2ccccc2c1)C(=O)O; Lys(iPr) = CC(C)NCCCC[C@H](N)C(=O)O; NMeY = CN[C@@H](Cc1ccc(O)cc1)C(=O)O; dBta = N[C@H](Cc1csc2ccccc12)C(=O)O; NMeF = CN[C@@H](Cc1ccccc1)C(=O)O; Piperazinyl(4-Me) = CN1CCN(*)CC1; d3Pal = N[C@H](Cc1cccnc1)C(=O)O; Cha = N[C@@H](CC1CCCCC1)C(=O)O; d2Thi = N[C@H](Cc1cccs1)C(=O)O; NMeL = CN[C@@H](CC(C)C)C(=O)O; pGlu = O=C1CC[C@@H](C(=O)O)N1; Nicotinoyl = O=C(c1cccnc1)*; NMeS = CN[C@@H](CO)C(=O)O; CO = O=C([*:1])[*:2]; Sar = CNCC(=O)O; For = O=C*
Target: T1, LHRH receptors (Rattus norvegicus, UniProt P30969)
T1 sequence (P30969 1-327): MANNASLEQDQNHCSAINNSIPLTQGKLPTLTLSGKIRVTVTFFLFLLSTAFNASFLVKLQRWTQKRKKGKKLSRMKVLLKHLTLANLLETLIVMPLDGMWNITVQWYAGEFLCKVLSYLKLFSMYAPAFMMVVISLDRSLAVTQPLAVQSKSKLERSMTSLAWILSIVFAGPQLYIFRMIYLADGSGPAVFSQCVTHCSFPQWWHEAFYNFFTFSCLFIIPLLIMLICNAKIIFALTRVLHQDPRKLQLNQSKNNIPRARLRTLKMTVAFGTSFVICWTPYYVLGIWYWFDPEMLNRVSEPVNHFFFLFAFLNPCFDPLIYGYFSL
Assay: Radioligand receptor binding assay, rat pituitary membranes
Conditions: radioiodinated [D-Leu6-des Gly10]-LHRH ethyl amide 50 pM, 2 hours at 4° C., read-out: Receptor Binding pkI (converted)
Protocol: The radioligand (50 pM), receptors, and compounds to be tested are coincubated for 2 hours at 4° C. Bound ligand is separated from free ligand via centrifugation and aspiration.

Row | SMILES | Ki [nM]
1 | CC(=O)N[C@H](Cc1ccc2ccccc2c1)C(=O)N[C@H](Cc1ccc(Cl)cc1)C(=O)N[C@H](Cc1cccnc1)C(=O)N[C@@H](CO)C(=O)N(C)[C@@H](Cc1ccc(O)cc1)C(=O)N[C@H](CCCCNC(=O)N1CCN(C)CC1)C(=O)N[C@@H](CC(C)C)C(=O)N[C@@H](CCCCNC(C)C)C(=O)N1CCC[C@H]1C(=O)N[C@H](C)C(N)=O [Ex. 70, N-Ac-D-2--Nal-D-4-Cl-Phe-D-3-Pal-Ser-N-Me-Tyr-D-Lys(N-epsilon-CO-NMePip)-Leu-Lys(N-epsilon-isopropyl)-Pro-D-AlaNH2] (Ac-[d2Nal][dPhe(4-Cl)][d3Pal]S[NMeY][dK]([CO-Piperazinyl(4-Me)])L[Lys(iPr)]P[dA]-NH2) | 0.012
2 | CC(=O)N(C)CC(=O)N[C@H](Cc1ccc(Cl)cc1)C(=O)N[C@H](Cc1cccc2ccccc12)C(=O)N[C@@H](CO)C(=O)N(C)[C@@H](Cc1ccc(O)cc1)C(=O)N[C@H](CCCCNC(=O)c1cccnc1)C(=O)N[C@@H](CC(C)C)C(=O)N[C@@H](CCCNC(=N)N)C(=O)N1CCC[C@H]1C(=O)N[C@H](C)C(N)=O [Ex. 51, N-Ac-Sar-D-4-Cl-Phe-D-1-Nal-Ser-N-Me-Tyr-D-Tys(N-epsilon-nicotinyl)-Leu-Arg-Pro-D-AlaNH2] (Ac-[Sar][dPhe(4-Cl)][d1Nal]S[NMeY][dK](Nicotinoyl)LRP[dA]-NH2) | 0.0269
3 | CC(=O)N(C)CC(=O)N[C@H](Cc1ccc(Cl)cc1)C(=O)N[C@H](Cc1cccc2ccccc12)C(=O)N[C@@H](CO)C(=O)N(C)[C@@H](Cc1ccc(O)cc1)C(=O)N[C@H](Cc1cccnc1)C(=O)N[C@@H](CC(C)C)C(=O)N[C@@H](CCCNC(=N)N)C(=O)N1CCC[C@H]1C(=O)N[C@H](C)C(N)=O [Ex. 50, N-Ac-Sar-D-4-Cl-Phe-D-1-Nal-Ser-N-Me-Tyr-D-3-Pal-Leu-Arg-Pro-D-AlaNH4] (Ac-[Sar][dPhe(4-Cl)][d1Nal]S[NMeY][d3Pal]LRP[dA]-NH2) | 0.0138
4 | CC(=O)N(C)CC(=O)N[C@H](Cc1ccc(Cl)cc1)C(=O)N[C@H](Cc1cccc2ccccc12)C(=O)N[C@@H](CO)C(=O)N(C)[C@@H](Cc1ccc(O)cc1)C(=O)N[C@H](CCCCN)C(=O)N[C@@H](CC(C)C)C(=O)N[C@@H](CCCNC(=N)N)C(=O)N1CCC[C@H]1C(=O)N[C@H](C)C(N)=O [Ex. 48, N-Ac-Sar-D-4-Cl-Phe-D-1-Nal-Ser-N-Me-Tyr-D-Lys-Leu-Arg-Pro-D-AlaNH2] (Ac-[Sar][dPhe(4-Cl)][d1Nal]S[NMeY][dK]LRP[dA]-NH2) | 0.01
5 | CC(=O)N[C@H](Cc1ccc(Cl)cc1)C(=O)N[C@H](Cc1ccc(Cl)cc1)C(=O)N[C@H](Cc1cn(C=O)c2ccccc12)C(=O)N[C@@H](CO)C(=O)N(C)[C@@H](Cc1ccc(O)cc1)C(=O)N[C@H](CCCCN)C(=O)N[C@@H](CC(C)C)C(=O)N[C@@H](CCCNC(=N)N)C(=O)N1CCC[C@H]1C(=O)N[C@H](C)C(N)=O [Ex. 55, N-Ac-D-4-Cl-Phe-D-4-Cl-Phe-D-Trp(formyl)-Ser-N-Me-Tyr-D-Lys-Leu-Arg-Pro-D-AlaNH2] (Ac-[dPhe(4-Cl)][dPhe(4-Cl)][dW](For)S[NMeY][dK]LRP[dA]-NH2) | 0.0219
6 | CC(=O)N(C)CC(=O)N[C@H](Cc1ccc(Cl)cc1)C(=O)N[C@H](Cc1csc2ccccc12)C(=O)N[C@@H](CO)C(=O)N(C)[C@@H](Cc1ccc(O)cc1)C(=O)N[C@H](CCCCNC(=O)c1cccnc1)C(=O)N[C@@H](CC(C)C)C(=O)N[C@@H](CCCCNC(C)C)C(=O)N1CCC[C@H]1C(=O)N[C@H](C)C(N)=O [Ex. 64, N-Ac-Sar-D-4-Cl-Phe-D-3-Bal-Ser-N-Me-Tyr-D-Lys(N-epsilon-nicotinyl)-Leu-Lys(N-epsilon-isopropyl)-Pro-D-Ala-NH2] (Ac-[Sar][dPhe(4-Cl)][dBta]S[NMeY][dK](Nicotinoyl)L[Lys(iPr)]P[dA]-NH2) | 0.0102
7 | CC(=O)N[C@H](Cc1ccc(Cl)cc1)C(=O)N[C@H](Cc1ccc(Cl)cc1)C(=O)N[C@H](Cc1cccc2ccccc12)C(=O)N[C@@H](CO)C(=O)N(C)[C@@H](Cc1ccc(O)cc1)C(=O)N[C@H](CCCCN)C(=O)N[C@@H](CC1CCCCC1)C(=O)N[C@@H](CCCNC(=N)N)C(=O)N1CCC[C@H]1C(=O)N[C@H](C)C(N)=O [Ex. 47, N-Ac-D-4-Cl-Phe-D-4-Cl-Phe-D-1-Nal-Ser-N-Me-Tyr-D-Lys-Cha-Arg-Pro-D-AlaNH2] (Ac-[dPhe(4-Cl)][dPhe(4-Cl)][d1Nal]S[NMeY][dK][Cha]RP[dA]-NH2) | 0.038
8 | CC(=O)N[C@H](Cc1ccc2ccccc2c1)C(=O)N[C@H](Cc1ccc(Cl)cc1)C(=O)N[C@H](Cc1cccnc1)C(=O)N[C@@H](CO)C(=O)N(C)[C@@H](Cc1ccc(O)cc1)C(=O)N[C@H](CCCCNC(=O)c1cccnc1)C(=O)N[C@@H](CC1CCCCC1)C(=O)N[C@@H](CCCNC(=N)N)C(=O)N1CCC[C@H]1C(=O)N[C@H](C)C(N)=O [Ex. 66, N-Ac-D-2-Nal-D-4-Cl-Phe-D-3-Pal-Ser-N-Me-Tyr-D-Lys(N-epsilon-nicotinyl)-Cha-Arg-Pro-D-AlaNH2] (Ac-[d2Nal][dPhe(4-Cl)][d3Pal]S[NMeY][dK](Nicotinoyl)[Cha]RP[dA]-NH2) | 0.0141
9 | CCNC(=O)[C@@H]1CCCN1C(=O)[C@H](CCCN=C(N)N)NC(=O)[C@H](CC(C)C)NC(=O)[C@@H](Cc1c[nH]c2ccccc12)NC(=O)[C@H](Cc1ccc(O)cc1)NC(=O)[C@H](CO)NC(=O)[C@H](Cc1c[nH]c2ccccc12)NC(=O)[C@H](Cc1ccccc1)N(C)C(=O)[C@@H]1CCC(=O)N1 [Ex. 19, (pyro)Glu-N-Me-Phe-Trp-Ser-Tyr-D-Trp-Leu-Arg-ProNHEt] ([pGlu][NMeF]WSY[dW]LRP-NHEt) | 0.038
10 | CC(=O)N[C@H](Cc1ccc(Cl)cc1)C(=O)N[C@H](Cc1ccc(Cl)cc1)C(=O)N[C@H](Cc1cccs1)C(=O)N[C@@H](CO)C(=O)N[C@@H](Cc1ccc(O)cc1)C(=O)N[C@H](CCCCN)C(=O)N[C@@H](CC(C)C)C(=O)N[C@@H](CCCNC(=N)N)C(=O)N1CCC[C@H]1C(=O)N(C)CC(N)=O [Ex. 58, N-Ac-D-4-Cl-Phe-D-4-Cl-Phe-D-2-Thia-Ser-Tyr-D-Lys-Leu-Arg-Pro-SarNH2] (Ac-[dPhe(4-Cl)][dPhe(4-Cl)][d2Thi]SY[dK]LRP[Sar]-NH2) | 0.00871
11 | CCNC(=O)[C@@H]1CCCN1C(=O)[C@H](CCCN=C(N)N)NC(=O)[C@H](CC(C)C)NC(=O)[C@@H](CC(C)C)NC(=O)[C@H](Cc1ccc(O)cc1)NC(=O)[C@H](CO)N(C)C(=O)[C@H](Cc1c[nH]c2ccccc12)NC(=O)[C@H](Cc1c[nH]cn1)NC(=O)[C@@H]1CCC(=O)N1 [Ex. 1, (pyro)Glu-His-Trp-N-Me-Ser-Tyr-D-Leu-Leu-Arg-Pro-NHEt] ([pGlu]HW[NMeS]Y[dL]LRP-NHEt) | 1.17

Second part, the compound after the results:

Row | Ki [nM] | SMILES
12 | 0.0355 | CC(=O)N[C@H](Cc1ccc(Cl)cc1)C(=O)N[C@H](Cc1ccc(Cl)cc1)C(=O)N[C@H](Cc1cccs1)C(=O)N[C@@H](CO)C(=O)N(C)[C@@H](Cc1ccc(O)cc1)C(=O)N[C@H](CCCCN)C(=O)N[C@@H](CC(C)C)C(=O)N[C@@H](CCCNC(=N)N)C(=O)N1CCC[C@H]1C(=O)N[C@H](C)C(N)=O [Ex. 39, N-Ac-D-4-Cl-Phe-D-4-Cl-Phe-D-2-Thia-Ser-N-Me-Tyr-D-Lys-Leu-Arg-Pro-D-AlaNH2] (Ac-[dPhe(4-Cl)][dPhe(4-Cl)][d2Thi]S[NMeY][dK]LRP[dA]-NH2)
13 | 0.12 | CC(=O)N[C@H](Cc1ccc(Cl)cc1)C(=O)N[C@H](Cc1ccc(Cl)cc1)C(=O)N[C@H](Cc1cccs1)C(=O)N[C@@H](CO)C(=O)N(C)[C@@H](Cc1ccc(O)cc1)C(=O)N[C@H](CCCCNC(=O)c1cccnc1)C(=O)N(C)[C@@H](CC(C)C)C(=O)N[C@@H](CCCNC(=N)N)C(=O)N1CCC[C@H]1C(=O)N[C@H](C)C(N)=O [Ex. 68, N-Ac-D-4-Cl-Phe-D-4-Cl-Phe-D-2-Thia-Ser-N-Me-Tyr-D-Lys(N-epsilon-nicotinyl)-N-Me-Leu-Arg-Pro-D-Ala-NH2] (Ac-[dPhe(4-Cl)][dPhe(4-Cl)][d2Thi]S[NMeY][dK](Nicotinoyl)[NMeL]RP[dA]-NH2)
14 | 0.0138 | CC(=O)N[C@H](Cc1ccc(Cl)cc1)C(=O)N[C@H](Cc1ccc(Cl)cc1)C(=O)N[C@H](Cc1cccs1)C(=O)N[C@@H](CO)C(=O)N(C)[C@@H](Cc1ccc(O)cc1)C(=O)N[C@H](CCCCN)C(=O)N(C)[C@@H](CC(C)C)C(=O)N[C@@H](CCCNC(=N)N)C(=O)N1CCC[C@H]1C(=O)N[C@H](C)C(N)=O [Ex. 45, N-Ac-D-4-Cl-Phe-D-4-Cl-Phe-D-2-Thia-Ser-N-Me-Tyr-D-Lys-N-Me-Leu-Arg-Pro-D-AlaNH4] (Ac-[dPhe(4-Cl)][dPhe(4-Cl)][d2Thi]S[NMeY][dK][NMeL]RP[dA]-NH2)
15 | 0.372 | CC(=O)N[C@H](Cc1ccc(Cl)cc1)C(=O)N[C@H](Cc1ccc(Cl)cc1)C(=O)N[C@H](Cc1ccc2ccccc2c1)C(=O)N[C@@H](CO)C(=O)N(C)[C@@H](Cc1ccc(O)cc1)C(=O)N[C@H](CCCCNC(=O)c1cccnc1)C(=O)N(C)[C@@H](CC(C)C)C(=O)N[C@@H](CCCNC(=N)N)C(=O)N1CCC[C@H]1C(=O)N[C@H](C)C(N)=O [Ex. 57, N-Ac-D-4-Cl-Phe-D-4-Cl-Phe-D-2-Nal-Ser-N-Me-Tyr-D-Lys(N-epsilon-nicotinyl)- N-Me-Leu-Arg-Pro-D-AlaNH2] (Ac-[dPhe(4-Cl)][dPhe(4-Cl)][d2Nal]S[NMeY][dK](Nicotinoyl)[NMeL]RP[dA]-NH2)
16 | 0.0132 | CC(=O)NCC(=O)N[C@H](Cc1ccc(Cl)cc1)C(=O)N[C@H](Cc1cccc2ccccc12)C(=O)N[C@@H](CO)C(=O)N(C)[C@@H](Cc1ccc(O)cc1)C(=O)N[C@H](CCCCN)C(=O)N[C@@H](CC(C)C)C(=O)N[C@@H](CCCNC(=N)N)C(=O)N1CCC[C@H]1C(=O)N[C@H](C)C(N)=O [Ex. 53, N-Ac-Gly-D-4-Cl-Phe-D-1-Nal-Ser-N-Me-Tyr-D-Lys-Leu-Arg-Pro-D-AlaNH2] (Ac-G[dPhe(4-Cl)][d1Nal]S[NMeY][dK]LRP[dA]-NH2)

From US5110904A (Abbott Laboratories, priority 1990, dated 1992)
